Measurements published in article PMC6812009, “Covalent Aurora A regulation by the metabolic integrator coenzyme A” (Redox Biology, 2019).
Where two headings read alike, the source gives them in different places.

Assays:
wild-type Aurora A = molecular target: T1, wild-type Aurora A (Homo sapiens, UniProt O14965); assay: In vitro CoAlation assay; format: binding
T1 construct: For enzyme and DSF assays, full-length human Aurora A and Aurora B and 1–43 TPX2 were produced; made in house; host or cells: E. coli
Method: (§1) For CoAlation assays, 0.5 μg of purified recombinant preparations of wild type and mutant forms of His-Aurora A (Cys290Ala; Cys393Ala, Cys290/393Ala, Thr217Glu) and His-Aurora B (Glu161Thr) were incubated with a mixture of oxidised and reduced forms of CoA (CoASH and CoASSCoA, 1 mM final) in 20 mM Tris-HCl, pH 7.5 for 30 min at RT. The reaction was stopped by adding SDS gel-loading buffer without DTT, but containing 10 mM NEM. To examine whether binding of the 3′-phosphate ADP moiety of CoA to the Aurora A ATP binding-pocket co-ordinates the pantetheine thiol for disulfide bond formation with Cys 290, the in vitro CoAlation assay was carried out with 100 μM CoA and increasing concentrations of ATP (0–10 mM).

[1] = molecular target: T2, Cys290Ala Aurora A mutant (Homo sapiens, UniProt O14965, C290A); assay: In vitro CoAlation assay; format: binding
T2 construct: For enzyme and DSF assays, full-length human Aurora A and Aurora B and 1–43 TPX2 were produced; made in house; host or cells: E. coli BL21 (DE3) pLysS
T2 sequence (O14965 whole entry C290A): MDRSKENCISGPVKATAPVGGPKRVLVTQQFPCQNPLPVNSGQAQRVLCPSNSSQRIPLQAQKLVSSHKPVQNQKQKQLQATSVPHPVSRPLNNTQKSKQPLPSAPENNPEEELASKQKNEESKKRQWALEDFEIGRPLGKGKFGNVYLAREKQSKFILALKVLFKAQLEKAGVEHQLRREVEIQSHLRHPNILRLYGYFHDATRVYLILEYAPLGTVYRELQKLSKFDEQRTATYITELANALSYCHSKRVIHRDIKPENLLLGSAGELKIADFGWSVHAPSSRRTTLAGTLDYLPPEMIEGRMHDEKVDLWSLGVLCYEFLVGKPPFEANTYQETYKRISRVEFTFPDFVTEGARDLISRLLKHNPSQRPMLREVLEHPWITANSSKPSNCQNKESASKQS
Method: as §1

[2] = molecular target: T3, Cys290/393Ala Aurora A mutant (Homo sapiens, UniProt O14965, C290A/C393A); assay: In vitro CoAlation assay; format: binding
T3 construct: made in house
T3 sequence (O14965 whole entry C290A/C393A): as the sequence (O14965 whole entry C290A) above, with C393A counted along it
Method: as §1

Aurora B = Aurora B (Homo sapiens, UniProt Q96GD4); assay: In vitro CoAlation assay; format: binding; conditions: optimal Aurora A assay conditions
Chain of Aurora B (Q96GD4 whole entry): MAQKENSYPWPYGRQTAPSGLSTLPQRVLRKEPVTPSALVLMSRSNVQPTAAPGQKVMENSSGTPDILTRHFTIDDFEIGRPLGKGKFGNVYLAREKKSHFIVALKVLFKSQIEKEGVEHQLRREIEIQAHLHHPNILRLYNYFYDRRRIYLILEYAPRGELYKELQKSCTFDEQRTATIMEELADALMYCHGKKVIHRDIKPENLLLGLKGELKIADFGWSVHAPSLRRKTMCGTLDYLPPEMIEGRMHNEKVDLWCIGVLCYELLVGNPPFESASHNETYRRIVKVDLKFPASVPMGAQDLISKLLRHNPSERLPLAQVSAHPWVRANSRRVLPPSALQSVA
Method: as §1

[3] = molecular target: T4, Thr217Glu mutant of Aurora A (Homo sapiens, UniProt O14965, T217E); assay: In vitro CoAlation assay; format: binding
T4 construct: For enzyme and DSF assays, full-length human Aurora A and Aurora B and 1–43 TPX2 were produced; made in house; host or cells: E. coli
T4 sequence (O14965 whole entry T217E): as the sequence (O14965 whole entry C290A) above, with T217E, A290C counted along it
Method: as §1

Aurora B mutant = molecular target: T5, Aurora B mutant (Homo sapiens, UniProt Q96GD4, E161T); assay: In vitro CoAlation assay; format: binding
T5 construct: For enzyme and DSF assays, full-length human Aurora A and Aurora B and 1–43 TPX2 were produced; made in house; host or cells: E. coli BL21 (DE3) pLysS
T5 sequence (Q96GD4 whole entry E161T): as the sequence (Q96GD4 whole entry) above, with E161T counted along it
Method: as §1

IRR = IRR (Homo sapiens, UniProt P14616); assay: Kinase profiling screen (radioactive filter-binding assay); format: biochemical; conditions: 100 μM compound, 5 μM ATP; read-out: Kinase activity, % of activity in the absence of inhibitor
Chain of IRR (P14616 27-1297): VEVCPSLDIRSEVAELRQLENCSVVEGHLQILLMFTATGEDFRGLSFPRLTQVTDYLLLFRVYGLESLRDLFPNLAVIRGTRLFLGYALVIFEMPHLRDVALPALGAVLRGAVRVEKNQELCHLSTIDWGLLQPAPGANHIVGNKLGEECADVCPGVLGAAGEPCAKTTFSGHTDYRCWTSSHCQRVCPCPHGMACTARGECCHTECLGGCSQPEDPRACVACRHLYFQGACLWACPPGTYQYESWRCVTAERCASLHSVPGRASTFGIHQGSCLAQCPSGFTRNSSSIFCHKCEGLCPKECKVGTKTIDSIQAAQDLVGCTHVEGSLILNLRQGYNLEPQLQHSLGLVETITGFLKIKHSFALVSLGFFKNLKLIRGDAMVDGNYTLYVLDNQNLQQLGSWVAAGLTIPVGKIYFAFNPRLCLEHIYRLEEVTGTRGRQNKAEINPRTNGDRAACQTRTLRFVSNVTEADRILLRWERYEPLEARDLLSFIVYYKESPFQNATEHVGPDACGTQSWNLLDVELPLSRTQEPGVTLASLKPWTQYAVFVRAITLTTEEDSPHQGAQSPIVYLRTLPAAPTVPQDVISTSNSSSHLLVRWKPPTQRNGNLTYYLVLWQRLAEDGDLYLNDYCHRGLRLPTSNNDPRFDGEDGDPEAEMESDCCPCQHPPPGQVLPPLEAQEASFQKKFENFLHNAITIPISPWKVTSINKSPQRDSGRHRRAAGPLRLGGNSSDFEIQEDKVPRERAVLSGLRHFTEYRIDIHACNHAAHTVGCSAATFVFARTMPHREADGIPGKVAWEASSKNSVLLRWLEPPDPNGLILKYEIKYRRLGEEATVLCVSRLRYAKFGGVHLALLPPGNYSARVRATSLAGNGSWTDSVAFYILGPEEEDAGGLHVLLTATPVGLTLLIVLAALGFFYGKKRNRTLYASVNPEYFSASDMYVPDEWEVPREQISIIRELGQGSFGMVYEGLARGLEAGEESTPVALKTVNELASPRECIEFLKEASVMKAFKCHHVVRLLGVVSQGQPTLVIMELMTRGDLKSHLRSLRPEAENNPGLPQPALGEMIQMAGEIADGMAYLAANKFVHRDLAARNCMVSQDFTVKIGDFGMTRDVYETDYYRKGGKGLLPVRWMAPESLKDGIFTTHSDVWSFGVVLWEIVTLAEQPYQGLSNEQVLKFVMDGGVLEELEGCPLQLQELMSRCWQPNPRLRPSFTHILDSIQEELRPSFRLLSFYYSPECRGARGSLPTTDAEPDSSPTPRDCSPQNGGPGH
How it was run: (§2)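 Single-point in vitro screen: 100 μM final of CoA, dpCoA and ADP, run in duplicate against recombinant kinase with a model substrate and optimal ATP.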

IR = IR (Homo sapiens, UniProt P06213); assay: as above; format: biochemical; conditions: 100 μM compound, 20 μM ATP; read-out: Kinase activity, % of activity in the absence of inhibitor
Chain of IR (P06213 28-1382): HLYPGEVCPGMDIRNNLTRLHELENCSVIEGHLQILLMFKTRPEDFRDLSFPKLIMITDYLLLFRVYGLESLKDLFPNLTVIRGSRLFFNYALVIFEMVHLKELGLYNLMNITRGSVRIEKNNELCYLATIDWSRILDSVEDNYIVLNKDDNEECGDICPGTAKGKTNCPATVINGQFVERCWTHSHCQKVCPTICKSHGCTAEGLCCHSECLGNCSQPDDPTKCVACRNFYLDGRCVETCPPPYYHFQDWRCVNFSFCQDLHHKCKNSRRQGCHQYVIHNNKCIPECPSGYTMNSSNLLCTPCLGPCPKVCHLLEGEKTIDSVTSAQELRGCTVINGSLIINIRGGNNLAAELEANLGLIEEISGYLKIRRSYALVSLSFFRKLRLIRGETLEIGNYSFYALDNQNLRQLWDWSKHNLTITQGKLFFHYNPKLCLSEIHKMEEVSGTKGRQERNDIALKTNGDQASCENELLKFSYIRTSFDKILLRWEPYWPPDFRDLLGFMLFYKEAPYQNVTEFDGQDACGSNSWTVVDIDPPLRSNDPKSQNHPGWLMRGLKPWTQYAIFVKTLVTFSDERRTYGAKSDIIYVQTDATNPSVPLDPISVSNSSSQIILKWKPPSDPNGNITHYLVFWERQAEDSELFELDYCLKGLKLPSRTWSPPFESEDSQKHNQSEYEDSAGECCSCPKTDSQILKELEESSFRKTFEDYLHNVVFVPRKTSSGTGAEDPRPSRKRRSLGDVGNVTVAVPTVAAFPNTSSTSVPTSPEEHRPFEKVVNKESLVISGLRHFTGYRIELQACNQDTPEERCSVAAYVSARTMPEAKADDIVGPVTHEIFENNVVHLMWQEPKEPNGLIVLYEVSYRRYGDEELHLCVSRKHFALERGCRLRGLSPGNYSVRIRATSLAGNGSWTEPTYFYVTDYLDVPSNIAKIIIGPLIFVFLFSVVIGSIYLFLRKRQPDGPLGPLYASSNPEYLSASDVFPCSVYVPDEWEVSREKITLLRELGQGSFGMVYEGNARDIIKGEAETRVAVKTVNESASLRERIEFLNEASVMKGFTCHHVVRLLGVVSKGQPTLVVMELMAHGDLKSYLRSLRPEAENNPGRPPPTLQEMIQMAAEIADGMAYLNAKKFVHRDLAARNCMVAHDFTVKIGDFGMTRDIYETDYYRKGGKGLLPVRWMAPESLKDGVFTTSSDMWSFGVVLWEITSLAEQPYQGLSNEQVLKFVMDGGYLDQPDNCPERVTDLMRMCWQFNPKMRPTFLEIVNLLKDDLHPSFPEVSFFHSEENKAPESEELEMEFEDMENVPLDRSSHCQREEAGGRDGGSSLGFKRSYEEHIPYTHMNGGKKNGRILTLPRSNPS
How it was run: as §2

TrkA = TrkA (Homo sapiens, UniProt P04629); assay: as above; format: biochemical; conditions: 100 μM compound, 20 μM ATP; read-out: Kinase activity, % of activity in the absence of inhibitor
Chain of TrkA (P04629 33-796): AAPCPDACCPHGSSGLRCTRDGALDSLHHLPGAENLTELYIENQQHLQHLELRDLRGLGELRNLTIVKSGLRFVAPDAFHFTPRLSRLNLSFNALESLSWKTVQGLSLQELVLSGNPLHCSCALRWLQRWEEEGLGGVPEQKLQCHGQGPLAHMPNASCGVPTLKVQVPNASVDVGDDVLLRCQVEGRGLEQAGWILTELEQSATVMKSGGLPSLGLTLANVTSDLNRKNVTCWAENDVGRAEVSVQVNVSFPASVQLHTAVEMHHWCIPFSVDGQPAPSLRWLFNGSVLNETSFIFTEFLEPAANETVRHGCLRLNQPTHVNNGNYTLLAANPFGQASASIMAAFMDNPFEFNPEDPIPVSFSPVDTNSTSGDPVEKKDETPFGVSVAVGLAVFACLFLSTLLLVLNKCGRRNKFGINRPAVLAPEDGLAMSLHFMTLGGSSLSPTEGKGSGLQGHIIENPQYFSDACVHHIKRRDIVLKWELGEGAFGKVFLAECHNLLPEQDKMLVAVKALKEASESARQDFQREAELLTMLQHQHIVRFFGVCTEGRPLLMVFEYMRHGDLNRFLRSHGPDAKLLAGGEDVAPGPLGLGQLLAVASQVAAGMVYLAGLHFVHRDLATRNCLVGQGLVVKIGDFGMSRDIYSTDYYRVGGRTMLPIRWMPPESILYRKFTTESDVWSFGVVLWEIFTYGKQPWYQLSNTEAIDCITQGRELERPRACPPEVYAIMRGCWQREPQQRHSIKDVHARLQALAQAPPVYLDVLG
How it was run: as §2

IGF-1R = IGF-1R (Homo sapiens, UniProt P08069); assay: as above; format: biochemical; conditions: 100 μM compound, 5 μM ATP; read-out: Kinase activity, % of activity in the absence of inhibitor
How it was run: as §2

mouse oocytes = assay: Microinjection of mouse oocytes, spindle formation and chromosome alignment; format: cell-based; conditions: 17 h after GV release; for Disruption of bipolar spindle formation and chromosome alignment: injected with 3 mM compound
Method: Mouse oocytes arrested at the GV stage were injected with different concentrations of CoA (0.15–5 mM). Since the commercial preparation of CoA used for microinjection contained 3 mol of lithium ions per mole of CoA, control oocytes were injected with an equivalent amount of LiCl. In a separate study, oocytes were injected with 3 mM CoA, ADP, AMP, 3′-5′-ADP and pantetheine. To examine the effect of injected compounds on spindle formation, oocytes were fixed 17 h after GV release and stained for alpha-tubulin (green) and DNA (blue).

[4] = molecular target: T6, Aurora A (inactive), unphosphorylated (PP1-treated) (Homo sapiens, UniProt O14965); assay: Lanthascreen Eu Kinase FRET binding assay
T6 construct: For enzyme and DSF assays, full-length human Aurora A and Aurora B and 1–43 TPX2 were produced; made in house; host or cells: E. coli
T6 sequence (O14965 1-403): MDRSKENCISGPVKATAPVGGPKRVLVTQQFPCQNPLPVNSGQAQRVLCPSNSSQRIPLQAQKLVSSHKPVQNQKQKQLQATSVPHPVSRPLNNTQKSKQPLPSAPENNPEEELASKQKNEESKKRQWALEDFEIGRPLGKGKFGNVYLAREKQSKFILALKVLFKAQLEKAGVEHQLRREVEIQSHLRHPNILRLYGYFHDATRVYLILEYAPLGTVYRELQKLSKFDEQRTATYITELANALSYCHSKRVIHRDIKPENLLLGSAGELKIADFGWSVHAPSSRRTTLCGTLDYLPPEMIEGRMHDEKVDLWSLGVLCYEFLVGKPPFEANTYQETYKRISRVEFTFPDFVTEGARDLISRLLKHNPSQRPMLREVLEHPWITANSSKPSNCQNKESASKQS
Method: (§3) A Lanthascreen Eu Kinase FRET Binding Assay (Invitrogen) was employed to determine IC50 values for the interaction of Aurora A with CoA, dpCoA, ATP, and ADP. […] Recombinant Aurora A was incubated with Europium-conjugated anti-histidine tag antibody and an Alexa Fluor 647-labelled tracer, which binds to the ATP binding pocket of Aurora A. The close proximity of the anti-histidine (epitope-tag) antibody and the tracer results in a high degree of FRET (fluorescence resonance energy transfer) from the europium donor fluorophore to the Alexa Fluor 647 acceptor fluorophore. ATP-competitive inhibitors, such as CoA, displace the tracer from the active site, causing a loss of FRET signal. Assay set-up was performed as described by the manufacturer. Briefly, the time-resolved fluorescence resonance energy transfer assay (TR-FRET) was performed in black, low volume 384 well plates (Corning). Each well contained 5 nM kinase, 2 nM Eu-anti-His antibody and 10 nM kinase tracer 236 in kinase buffer A (50 mM Hepes pH 7.5, 10 mM MgCl2, 1 mM […], 0.01% (v/v) Brij-35), varying amounts of CoA, dpCoA, ATP, and ADP. The reaction mix was incubated for 1h at room temperature. The signal was measured at 665/620 nm emission ratio using BMG LABTECH plate reader (PHERAstar). All assays were performed using duplicates. The 11-point response curves were generated using GraphPad Prism software from the inhibition data generated.

[5] = molecular target: T7, Aurora A (active), T288 phosphorylated (Homo sapiens, UniProt O14965); assay: Lanthascreen Eu Kinase FRET binding assay
T7 construct: For enzyme and DSF assays, full-length human Aurora A and Aurora B and 1–43 TPX2 were produced; made in house; host or cells: E. coli
T7 sequence (O14965 1-403): T6 sequence (O14965 1-403)
Method: as §3

[6] = T288 phosphorylated Aurora A, read-out: Aurora A (active) IC50 (μM), binding assay

| SMILES | In vitro CoAlation of Aurora A (wild-type Aurora A) | Reduction of covalent modification by CoA in comparison to wild-type Aurora A [1] [%] | Covalent modification (binding) by CoA [2] | In vitro CoAlation of Aurora B (Aurora B) | CoA binding compared to the wild-type kinase [3] | CoA binding (in vitro CoAlation) (Aurora B mutant) | activity at 100 µM (IRR) [%] | activity at 100 µM (IR) [%] | activity at 100 µM (TrkA) [%] | activity at 100 µM (IGF-1R) [%] | Disruption of bipolar spindle formation and chromosome alignment (mouse oocytes) | Number of oocytes with atypical spindles and misaligned chromosomes (mouse oocytes; microinjection of 0.15–5 mM CoA, dose-dependent) | IC50 [4] [µM] | IC50 [5, 6] [nM] | IC50 ([5]; read-out: IC50 for the interaction of active Aurora A) [nM] |
| --- | --- | --- | --- | --- | --- | --- | --- | --- | --- | --- | --- | --- | --- | --- | --- |
| CC(C)(COP(=O)(O)OP(=O)(O)OC[C@H]1O[C@@H](n2cnc3c(N)ncnc32)[C@H](O)[C@@H]1OP(=O)(O)O)[C@@H](O)C(=O)NCCC(=O)NCCS [CoA, Coenzyme A] | strong CoAlation | > 95 | no binding was detected | CoAlated at an extremely low level | significantly reduced CoA binding | strong binding | 92 | 100 | 104 | 93 | disrupted both bipolar spindle formation and chromosome alignment | markedly increased | 0.28 | 0.01 | – |
| Nc1ncnc2c1ncn2C1OC(COP(=O)(O)OP(=O)(O)O)C(O)C1O (centres unmarked) [ADP] | – | – | – | – | – | – | – | – | – | – | not | – | 1.3 | 170 | ~177000 |
| CC(C)(COP(=O)(O)OP(=O)(O)OCC1OC(n2cnc3c(N)ncnc32)C(O)C1O)C(O)C(=O)NCCC(=O)NCCS (centres unmarked) [dpCoA, dephospho-CoA] | – | – | – | – | – | – | – | – | – | – | – | – | > 100 | 0.3 | – |
